According to patent US20110251240A1, “Dosing Regimen of Flavopiridol for Treating Cancer” (OHIO STATE UNIVERSITY RESEARCH FOUNDATION, priority 2005, published 2011):
“Also recorded” adds a separate entry of the source. Where a name gives a salt, the structure may show the parent alone. Read-outs that look alike come from different tables or passages of the source.

Experiments:
patients with CLL [1] = settings: human, in vivo
Excerpt: (§1) Fifty-six patients were enrolled in this clinical trial with the median prior therapies being 4 and the majority being fludarabine-refractory. […] Cohort 1 was expanded with aggressive TLS prophylaxis. Of the 20 patients in cohort 1, 8 (40%) attained a partial response (PR) with median response duration exceeding 12 months. […] Cohort 3 and 4 did this (Table 4) with acceptable toxicity. Cohort 3 included 19 patients of whom 14 were escalated with the 5th dose. […] Ten (53%) of patients attained a partial response. […] TLS risk factors were examined for the first treatment dose in cohorts 1-3. WBC of ≧200×10^9/L were more frequently associated with TLS (5 of 8 pts) versus those with WBC<200×10^9/L (1 of 34 pts). Cohort 4 excludes pts with WBC≧200×10^9/L and currently includes 14 pts. Safety has been acceptable with only 1 case of TLS. Response assessment for cohort 4 is underway, with anti-tumor activity appearing similar to that observed in cohort 3.

RNA polymerase II = assay: Example 1 cellular pharmacodynamics: RNA polymerase II serine-5 phosphorylation in primary CLL cells during treatment; type: in vivo, human; settings: eight patients examined
Excerpt: (§2) Subjects: All patients provided written informed consent. Patients had CLL or small lymphocytic lymphoma and required therapy according to the NCI criteria. […] Enrollment requirements included: age older than 17 years, symptomatic by the NCI 96 criteria, platelet count greater than 49×10^9/L, ECOG performance status of 2 or less, no active infection or inflammatory bowel disease, and not pregnant. The serum creatinine and total bilirubin levels were required to be no more than 2.0 times the normal value. Design, Treatment and Dose Modifications: This study utilized a modified phase I design, enrolling three to six patients per level until two of the first six patients experienced dose limiting toxicity. Expansion of the dose level below this occurred to a minimum of six patients to assure safety for phase II investigation. Flavopiridol was administered via a central venous catheter. The schedule of flavopiridol included receiving 50% of the dose as a 30-minute bolus infusion and the remaining 50% dose as a 4-hour infusion every week for four consecutive weeks, followed by two weeks off. The total dose administered in level 1 was 60 mg/m^2 (i.e. 30 mg/m^2 as 30 minute bolus followed by 30 mg/m^2 4-hour continuous infusion). In level 2 the dose was 80 mg/m^2 (i.e. 40 mg/m^2 bolus and 40 mg/m^2 infusion). […] Patients were evaluated for response after two, four, and six cycles of therapy. […]

Mcl-1 = assay: Example 1 cellular pharmacodynamics: immunoblot of Mcl-1 in primary CLL cells during treatment; type: in vivo, human
Excerpt: as §2

[2] = type: in vitro ADME; settings: bovine
Excerpt: However, despite the promising pre-clinical results with flavopiridol in CLL and virtually all hematologic malignancies, the efficacy of flavopiridol in treating CLL in all of the clinical studies reported thus far are disappointing. […] See for example, Byrd J. C. et al., “Treatment of Relapsed Chronic Lymphocytic Leukemia by 72-hour Continuous Infusion or 1-Hour Bolus Infusion of Flavopiridol: Results from Cancer and Leukemia Group B Study 19805,” Clin. Cancer Res. 2005; 11(11) Jun. 1, 2005, 4176-4181, and references cited therein. The schedules selected in these unsuccessful trials were modeled after in vitro studies performed in fetal bovine serum-based media.
Based upon the poor clinical results in all the trials reported to date with flavopiridol, the present invention contemplated the possibility that differential protein binding could exist between these two culture media. […] Additionally, the 1-hour LC50 concentration for CLL cells in human serum was generally not obtained in the solid tumor phase I trial exploring this schedule. Thus, the prolonged continuous infusion or bolus dosing schedules previously explored in CLL and NHL may not achieve pharmacologically effective drug concentrations of flavopiridol, thereby explaining the absence of activity in the continuous infusion schedules and the marginal activity with the IV bolus schedule. […]

[3] = system: patients with CLL or small lymphocytic lymphoma; assay: Example 1 phase I trial: toxicity; type: in vivo
Experimental: Subjects: All patients provided written informed consent. […] Flavopiridol was administered via a central venous catheter. […] The ability to perform bedside emergent dialysis was assured.
Toxicity Observed with Flavopiridol: Six patients were initially treated in dose level 1 (30 mg/m^2 bolus followed by 30 mg/m^2 4-hour infusion), with one patient having dose limiting toxicity (neutropenic fever). Dose escalation proceeded to dose level 2, with three patients being treated. […] On autopsy, extensive apoptosis/necrosis of diffuse intra-abdominal lymphadenopathy was found. No additional patients were treated at this dose, but patient one of dose level 2, who previously had not experienced TLS at the 80 mg/m^2/dose, developed this toxicity on day 1 of cycle 2 while receiving a 60 mg/m^2 dose. All treatment was put on hold and an aggressive monitoring mechanism was put into place. Fourteen additional patients were treated at the level 1 dose utilizing this protocol. While biochemical evidence of TLS was present in most patients receiving therapy, only one developed significant TLS that required temporary dialysis for medically uncontrollable hyperkalemia on day 1 of therapy. While grade 1 (n=11) or 2 (n=6) diarrhea occurred in the majority of patients treated at the level 1 dose, this was generally short-lived. Similarly, transient grade 1 (n=13) or grade 2 (n=6) fatigue was observed.

[4] = Example 2 clinical trial: plasma Cmax; type: in vivo; settings: human, intravenous
Excerpt: as §1

patients with CLL [5] = assay: Example 2 clinical trial: response; type: in vivo, human
Excerpt: as §1

[6] = Example 1 plasma pharmacokinetics (LC/MS); settings: for half-life: plasma, intravenous
Excerpt: (§3) Subjects: All patients provided written informed consent. Patients had CLL or small lymphocytic lymphoma and required therapy according to the NCI criteria. […] Enrollment requirements included: age older than 17 years, symptomatic by the NCI 96 criteria, platelet count greater than 49×10^9/L, ECOG performance status of 2 or less, no active infection or inflammatory bowel disease, and not pregnant. The serum creatinine and total bilirubin levels were required to be no more than 2.0 times the normal value. Design, Treatment and Dose Modifications: This study utilized a modified phase I design, enrolling three to six patients per level until two of the first six patients experienced dose limiting toxicity. Expansion of the dose level below this occurred to a minimum of six patients to assure safety for phase II investigation. Flavopiridol was administered via a central venous catheter. The schedule of flavopiridol included receiving 50% of the dose as a 30-minute bolus infusion and the remaining 50% dose as a 4-hour infusion every week for four consecutive weeks, followed by two weeks off. The total dose administered in level 1 was 60 mg/m^2 (i.e. 30 mg/m^2 as 30 minute bolus followed by 30 mg/m^2 4-hour continuous infusion). In level 2 the dose was 80 mg/m^2 (i.e. 40 mg/m^2 bolus and 40 mg/m^2 infusion). All patients received allopurinol 300 mg/day beginning one day prior to initiation of treatment and continued during therapy. All patients received prophylactic anti-viral and Pneumocystis carinii pneumonia therapy as described previously during and for six months following completion of therapy. […] Aggressive management of hyperkalemia including kayexalate therapy, insulin and glucose therapy, and calcium therapy was employed according to an established protocol. The ability to perform bedside emergent dialysis was assured. Prophylactic rasburicase was utilized in patients with bulky lymphadenopathy or high lymphocyte counts. Following five treatments with flavopiridol, treatment was transitioned to outpatient status with two hours of hydration before and through therapy with abbreviated laboratory monitoring. Patients could discontinue therapy for stable disease without improvement after two cycles (eight treatments). Otherwise, patients continued therapy in the absence of progression or toxicity that prohibited further treatment for a maximum of six cycles (24 treatments) of flavopiridol. Patients were evaluated for response after two, four, and six cycles of therapy. Dose Limiting Toxicity: Dose limiting toxicity was defined as non-hematologic toxicity of grade 3 or greater severity (excluding transient liver function abnormalities, transient non-life-threatening electrolyte abnormalities, fatigue, or diarrhea that resolve within four days), or in some case grade 2 toxicity (i.e. irreversible renal, chronic pulmonary, neurologic, or cardiac toxicity). Hematologic toxicity was dose limiting only if grade 4 thrombocytopenia or neutropenia persisted for seven days or greater. The NCI Common Toxicity Criteria was used to grade non-hematologic toxicity and the NCI 96 CLL criteria for hematologic toxicity. See, Cheson B. D., et al. “National Cancer Institute-sponsored Working Group guidelines for chronic lymphocytic leukemia: revised guidelines for diagnosis and treatment,” Blood 1996; 87:4990-7. Assessment of Response: Criteria for response and progression utilized the Revised NCI-sponsored Working Group Guidelines as mentioned above. As specified by these guidelines, a response had to be maintained for a period of two months.

relapsed CLL = settings: cited from earlier work; for clinical activity / response: CLL, hydrochloride
[7] = system: patients with CLL or small lymphocytic lymphoma; assay: Example 1 phase I trial: response (NCI 96 criteria); type: in vivo, human
Excerpt: as §3

CLL cells = assay: cells; type: cell-based; settings: Homo sapiens, CLL cell
Excerpt: Based upon the poor clinical results in all the trials reported to date with flavopiridol, the present invention contemplated the possibility that differential protein binding could exist between these two culture media. […] Additionally, the 1-hour LC50 concentration for CLL cells in human serum was generally not obtained in the solid tumor phase I trial exploring this schedule. Thus, the prolonged continuous infusion or bolus dosing schedules previously explored in CLL and NHL may not achieve pharmacologically effective drug concentrations of flavopiridol, thereby explaining the absence of activity in the continuous infusion schedules and the marginal activity with the IV bolus schedule. Given the novel mechanism of action of flavopiridol, as well as its ability to induce apoptosis independent of p53 dysfunction and modulate critical anti-apoptotic proteins such as Mcl-1 in vitro, and utilizing pharmacokinetic modeling a new dosing regimen in accordance with this invention was developed.

[8] = 23 CLL patients, 30-min bolus + 4-h infusion
[9] = cohort 1, 30 mg/m^2 + 30 mg/m^2
[10] = cohort 3 at the escalated doses (30 mg/m^2 + 50 mg/m^2)
[11] = Cohort 1, 30 mg/m^2 + 30 mg/m^2, 20 pts
[12] = Cohort 2, 40 mg/m^2 + 40 mg/m^2, 3 pts

## CN1CCC(c2c(O)cc(O)c3c(=O)cc(-c4ccccc4Cl)oc23)[C@H](O)C1.Cl (stereo partly drawn) [Flavopiridol, (cis-5,7-dihydroxy-2-(2-chlorophenyl)-8-[4-(3-hydroxy-1-methyl)-piperidinyl]-1-benzopyran-4-one) hydrochloride]
Patients with CLL [1]
  cases of TLS: 1
RNA polymerase II
  change in serine-5 phosphorylation of RNA polymerase II: no change
Mcl-1; of the five non-responding patients examined
  patients with significant modulation of Mcl-1: None
Mcl-1; of three responding patients examined
  patients with decreased expression of Mcl-1 with treatment: two
[2]
  free drug level: 63-100%
[3]; 40 mg/m^2 bolus + 40 mg/m^2 infusion, day 1
  toxicity in patient three at dose level 2: TLS complicated by uncontrollable hyperkalemia and subsequent fatal asystole
[3]; [8]
  Number of patients with AST Elevation Grade 5: 0
  Number of patients with Anemia Grade 5: 0
  Number of patients with Arthralgias Grade 5: 0
  Number of patients with Diarrhea Grade 5: 0
  Number of patients with Dyspnea Grade 5: 0
  Number of patients with Edema Grade 5: 0
  Number of patients with Fatigue Grade 5: 0
  Number of patients with Hypokalemia Grade 5: 0
  Number of patients with Infection Grade 3: 5
  Number of patients with Infection Grade 4: 0
  Number of patients with Infection Grade 5: 0
  Number of patients with Neutropenia Grade 5: 0
  Number of patients with Syncope Grade 5: 0
  Number of patients with Thrombocytopenia Grade 5: 0
  Number of patients with Tumor Lysis Syndrome Grade 5: 1
  Percentage of patients with Infection Grade 3: (22%)
  Percentage of patients with Tumor Lysis Syndrome Grade 5: 4%
[3]; human, in vivo
  patients with grade 1 diarrhea: 11
  patients with grade 2 diarrhea: 6
  patients with transient grade 1 fatigue: 13
  patients with transient grade 2 fatigue: 6
[3]; in vivo
  patients developing significant TLS that required temporary dialysis: one
[4]; [9]
  Cmax at 0.5 hr: 2080 nM
  Cmax at 4.5 hr: 960 nM
[4]; [10]
  Cmax at 0.5 hr: 1950 nM
  Cmax at 4.5 hr: 1540 nM
Patients with CLL [5]; [11]
  Response Rate (partial response), number of patients: 8
  Response Rate (partial response), percentage: 40%
Patients with CLL [5]; [12]
  Response Rate, number of patients: 1
  Response Rate, percentage: 33%
Patients with CLL [5]; Cohort 3, 30 + 30 mg/m^2 dose 1-4 then 30 + 50 mg/m^2, 19 pts
  Response Rate (partial response), percentage: 53%
Patients with CLL [5]; cohort 1 responders
  median response duration: exceeding 12 months
Patients with CLL [5]; cohort 3, 14 patients escalated with the 5th dose
  tumor cytoreduction with dose escalation: Increased tumor cytoreduction was observed in a majority of patients
[6]; 30 + 30 mg/m^2 (n = 20), Mean ± S.D.
  CL: 14.5 ± 6.5 L/hr/m^2
[6]; human, in vivo
  inter-patient variability of Cmax: two to three-fold
[6]; human, in vivo, 80 mg/m^2
  Cmax: 4.4 µM
[6]; human, t1/2, 30 + 30 mg/m^2 (n = 20), Mean ± S.D.
  half-life: 840 ± 612 min
[6]; human, terminal half-life, mean±S.D., after the end of the 4-hour CIVI
  half-life: 840 ± 612 min
[6]; human, terminal half-life, range, after the end of the 4-hour CIVI
  half-life: 66 to 2550 min
Relapsed CLL; 1-hour bolus, relapsed CLL
  response rate: 11%
Relapsed CLL; 24-hour infusion
  clinical activity / response: No activity; also recorded: no patients with CLL responded
Relapsed CLL; 72-hour continuous infusion
  clinical activity / response: No activity; also recorded: no patients with CLL responded
[7]; 40 mg/m^2 bolus + 40 mg/m^2 infusion
  duration of partial response in patient two at dose level 2: > 13 month
[7]; among the 23 patients enrolled
  patients attaining a partial response (NCI 96 criteria), number: ten
  patients attaining a partial response (NCI 96 criteria), percentage: 43%
[7]; of ten responders, at eight and sixteen months
  responding patients relapsed: two
[7]; of ten responders, at five to 14+ months
  responding patients remaining in continuous remission: Eight
[7]; of the nine patients with measurable lymphadenopathy, by day 8 of cycle 1
  patients experiencing a 50% or greater reduction in lymphadenopathy: eight

## CN1CC[C@H](c2c(O)cc(O)c3c(=O)cc(-c4ccccc4Cl)oc23)[C@H](O)C1 [Flavopiridol, (cis-5,7-dihydroxy-2-(2-chlorophenyl)-8-[4-(3-hydroxy-1-methyl)-piperidinyl]-1-benzopyran-4-one) hydrochloride]
CLL cells; 1 h, read-out: 1-hour LC50 required to induce apoptosis in CLL cells, 1-hour exposure, fetal calf serum
  CC50: 670 nM
CLL cells; 1 h, read-out: 1-hour LC50 required to induce apoptosis in CLL cells, 1-hour exposure, human serum
  CC50: 3510 nM
CLL cells; 24 h, read-out: 24-hour LC50 required to induce apoptosis in CLL cells, 24-hour exposure, fetal calf serum
  CC50: 120 nM
CLL cells; 24 h, read-out: 24-hour LC50 required to induce apoptosis in CLL cells, 24-hour exposure, human serum
  CC50: 470 nM
